Measured values: patent US20240226062A1, “METHODS AND COMPOSITIONS FOR THE TREATMENT OF DISORDERS CHARACTERIZED BY A KIDINS220 DYSFUNCTION IN A SUBJECT” (priority 2021, published 2024)

Assays:
AQP4 = assay: Effect of bafilomycin A1 on protein levels in WT and Kidins220^f/f astrocytes (immunofluorescence and immunoblot); format: cell-based, mouse; details: for AQP4 levels: 100 nM bafilomycin A1 for 16 h
Description: (§1) Cell culture, treatment and transfection of primary cortical astrocytes, neurons and HEK293T cells. Mouse cortical astrocytes were prepared from cerebral cortices of 0 to 2-day-old mice pups according to standard methods. Cells seeded on plates or glass coverslips coated with poly-L-lysine (10 μg/ml) and laminin (4 μg/ml) at a density of 5×10^4 cells/cm2 in complete DMEM-F12. After 2 additional days (DIV14-16) astrocytes were treated with vehicle (DMSO), 100 nM bafilomycin Al (Sigma Co.; St. Louis, MO, USA) for 16 h or 10 μM R55 (MedKoo Biosciences, Inc.; Morrisville, NC, USA) for 48 h. Neuronal cultures were prepared from cerebral cortex of 19-day-old Wistar rat embryos, as we have previously described (Lopez-Menendez et al. 2019). Neurons were used after 10 days in vitro (DIV) for immunofluorescence and DIV14 for biochemical assays. Neurons were pretreated or treated for different times as indicated: 50 μM NMDA and 10 μM glycine (Sigma Co.; St. Louis, MO, USA); 200 μM DL-AP5 (Tocris; Bristol, UK); 5 μM R55. Excitotoxicity was induced by treatment with the NMDAR coagonists NMDA and glycine (referred as NMDA treatment). DL-AP5 or R55 were added 1 h or 48 h before NMDA treatment, respectively. HEK293T cells were cultured and transfected by standard procedures. HEK293T cells and DIV12-14 primary astrocytes were seeded at 50-60% confluence. Two days later cells were transfected in Opti-MEM by using 0.7 μl of Lipofectamine 2000@ reagent (ThermoFisher Scientific) and 0.7 μg of DNA per 24 multi-well plate, according to the manufacturer's specifications. Cells were fixed and processed for immunofluorescence or washed with PBS to prepare protein extracts for immunoprecipitation experiments.
Preparation of protein extracts, immunoprecipitation, and immunoblot analysis. Protein extracts from mice tissue, primary cell cultures or HEK293T cells were prepared in RIPA by standard methods. Briefly, cultured cells were lysed in RIPA buffer (25 mM Tris-HCl, pH 7.6, 1% Triton X-100, 0.5% sodium deoxycholate, 0.1% SDS, 150 mM NaCl) with protease and phosphatase inhibitors for 30 min at 4° C. Lysates were centrifuged for 30 min at 14,000 rpm at 4° C., and resulting supernatant was considered the total lysate soluble fraction. […] Equal amounts of total lysates or immunoprecipitates were resolved in SDS-PAGE and analysed by immunoblot. Membranes were incubated with different primary and secondary antibodies and immunoreactive bands were detected by ECL (PerkinElmer, Waltham, MA USA). […]
Quantitative and statistical analysis. Immunoblot signals were quantified by densitometric analysis with ImageJ 1.47d software (NIH) and normalized using β-actin, α-tubulin or GFAP band signal intensities. […]

SNX27-retromer [1] = assay: Immunoblot of NMDA-induced degradation of SNX27-retromer components and cargos in primary cortical neurons; format: cell-based, rat; details: 50 μM NMDA and 10 μM glycine; DL-AP5 (200 μM) added 1 h or R55 (5 μM) 48 h before
Description: as §1
Preparation of protein extracts, immunoprecipitation, and immunoblot analysis. Protein extracts from mice tissue, primary cell cultures or HEK293T cells were prepared in RIPA by standard methods. Briefly, cultured cells were lysed in RIPA buffer (25 mM Tris-HCl, pH 7.6, 1% Triton X-100, 0.5% sodium deoxycholate, 0.1% SDS, 150 mM NaCl) with protease and phosphatase inhibitors for 30 min at 4° C. Lysates were centrifuged for 30 min at 14,000 rpm at 4° C., and resulting supernatant was considered the total lysate soluble fraction. Different mouse tissues were dissected, frozen in dry ice and homogenized in RIPA buffer as above using potter and Polytron homogenizers. For immunoprecipitation, total lysates were incubated with anti-VPS35 or anti-GFP antibody for 4 h at 4° C., before binding immunocomplexes to protein A sepharose beads for 1 h at 4° C. Beads were washed four times with RIPA buffer before adding Laemli sample buffer. Note that sample boiling was avoided to detect properly AQP4 band by immunoblots. Equal amounts of total lysates or immunoprecipitates were resolved in SDS-PAGE and analysed by immunoblot. Membranes were incubated with different primary and secondary antibodies and immunoreactive bands were detected by ECL (PerkinElmer, Waltham, MA USA). Immunoblot images have been cropped for presentation.
Quantitative and statistical analysis. Immunoblot signals were quantified by densitometric analysis with ImageJ 1.47d software (NIH) and normalized using β-actin, α-tubulin or GFAP band signal intensities. Data were expressed relative to values obtained in their respective untreated controls or WT mice or astrocytes. For immunofluorescence quantitative analysis of mice and human brain samples, fluorescence intensity of specific antibodies was measured at the ependymal barrier of lateral ventricles using ImageJ 1.47d software (NIH). Specific ROIs were defined in each brain section at the ependymal barrier boundaries, identified by DAPI staining of ependymal cell nuclei. In those regions, fluorescence signal above a certain threshold, stablished as background, was quantified. In the case of human brain necropsies, nine randomly selected ROIs were used for the analysis. […]

primary cortical neurons [2] = details: DL-AP5 preincubation; Lopez-Menendez et al. 2009; cited from earlier work
SNX27-retromer [3] = assay: Immunofluorescence of SNX27-retromer localization in primary cortical neurons under NMDA excitotoxicity; format: cell-based, rat
Description: as §1, with “μM […].” for “μM R55.”, “or […]” for “or R55”, “confluence. […]” for “confluence. Two days later cells were transfected in Opti-MEM by using 0.7 μl of Lipofectamine 2000@ reagent (ThermoFisher Scientific) and 0.7 μg of DNA per 24 multi-well plate, according to the manufacturer's specifications. Cells were fixed and processed for immunofluorescence or washed with PBS to prepare protein extracts for immunoprecipitation experiments.”

[4] = test system: trimeric Vps35-Vps29-Vps26 core; details: Mecozzi et al. 2014; cited from earlier work
SNX27-retromer [5] = molecular target: T1, SNX27-retromer (Mus musculus, UniProt Q9EQH3+Q9QZ88); assay: Immunoblot of retromer complex and cargo protein levels in cultured astrocytes treated with R55; format: cell-based; details: 10 μM R55 for 48 h
T1 construct: endogenous in cells; host or cells: primary mouse cortical astrocytes
Description: as §1, with “HEK293T cells were cultured and transfected by standard procedures. HEK293T cells and DIV12-14 primary astrocytes were seeded at 50-60% confluence. Two days later cells were transfected in Opti-MEM by using 0.7 μl of Lipofectamine 2000@ reagent (ThermoFisher Scientific) and 0.7 μg of DNA per 24 multi-well plate, according to the manufacturer's specifications. Cells were fixed and processed for immunofluorescence or washed with PBS to prepare protein extracts for immunoprecipitation experiments.” left out
Preparation of protein extracts, immunoprecipitation, and immunoblot analysis. […] Equal amounts of total lysates or immunoprecipitates were resolved in SDS-PAGE and analysed by immunoblot. Membranes were incubated with different primary and secondary antibodies and immunoreactive bands were detected by ECL (PerkinElmer, Waltham, MA USA). […]
Quantitative and statistical analysis. Immunoblot signals were quantified by densitometric analysis with ImageJ 1.47d software (NIH) and normalized using β-actin, α-tubulin or GFAP band signal intensities. […] For immunofluorescence quantitative analysis of mice and human brain samples, fluorescence intensity of specific antibodies was measured at the ependymal barrier of lateral ventricles using ImageJ 1.47d software (NIH). […] In those regions, fluorescence signal above a certain threshold, stablished as background, was quantified. […]

primary cortical neurons [6] = assay: Neuronal viability under NMDAR-induced excitotoxicity (MTT reduction assay, MAP2 staining); format: cell-based, rat; details: neurons incubated with NMDA for 6 h, R55 5 μM added 48 h before
Description: as §1, with “μM […].” for “μM R55.”, “or […]” for “or R55”, “confluence. […]” for “confluence. Two days later cells were transfected in Opti-MEM by using 0.7 μl of Lipofectamine 2000@ reagent (ThermoFisher Scientific) and 0.7 μg of DNA per 24 multi-well plate, according to the manufacturer's specifications. Cells were fixed and processed for immunofluorescence or washed with PBS to prepare protein extracts for immunoprecipitation experiments.”

[7] = test system: mouse model with plaques and tangles; details: AD mouse model, Li et al. 2020; cited from earlier work
[8] = Kidins220^f/f deficient astrocytes, bafilomycin A1 treatment (not shown)

## CO/C1=C\C(C)=C\[C@@H](C)[C@@H](O)[C@@H](C)C/C(C)=C/C=C/[C@H](OC)[C@@H]([C@@H](C)[C@@H](O)[C@H](C)[C@@]2(O)C[C@@H](O)[C@H](C)[C@@H](C(C)C)O2)OC1=O [bafilomycin A1]
AQP4; Kidins220^f/f astrocytes
  AQP4 levels: significant increase
AQP4; [8]
  loss of SNX27: not rescued
  loss of VPS35: not rescued
AQP4; WT astrocytes
  AQP4 levels: significant increase

## NC(CCCP(=O)(O)O)C(=O)O (racemic) [DL-AP5]
SNX27-retromer [1]
  NMDA-induced degradation of FAM21: blocked
  NMDA-induced degradation of GluN2B subunit of the NMDAR: decreasing
  NMDA-induced degradation of SNX27: blocked
  NMDA-induced degradation of SNX27-retromer cargo Kidins220: decreasing
  cleavage of the calpain substrate spectrin into breakdown products (BDPs): reduced
Primary cortical neurons [2]
  neuronal survival: preserves
SNX27-retromer [3]; neurons pretreated 1 h with 200 μM DL-AP5, then 50 μM NMDA and 10 μM glycine
  SNX27-retromer intracellular organization and colocalization of SNX27 and VPS35 (Pearson's correlation coefficient): preserved

## Cl.Cl.N=C(N)SCc1ccc(CSC(=N)N)s1 [R55, thiophene-2,5-diylbis(methylene) dicarbamimidothioate dihydrochloride]
SNX27-retromer [1]
  NMDA-induced degradation of FAM21: decreasing
  NMDA-induced degradation of GluN2B subunit of the NMDAR: decreasing
  NMDA-induced degradation of SNX27: decreasing
  NMDA-induced degradation of SNX27-retromer cargo Kidins220: decreasing
  cleavage of the calpain substrate spectrin into breakdown products (BDPs): diminishment
SNX27-retromer [3]; neurons pretreated 48 h with 5 μM R55, then excitotoxic NMDA
  SNX27, FAM21 and VPS35 localization in endocytic vesicles: preserved
[4]
  retromer levels: increased
  retromer-mediated trafficking of cargos: enhanced
SNX27-retromer [5]
  AQP4 content: increased
  Kidins220 levels: mild effect on elevating
  VPS35 levels: mild effect on elevating
Primary cortical neurons [6]
  neuroprotection (MAP2 immunofluorescence and MTT-viability assays): strong neuroprotection

## Cl.N=C(N)SCc1cccs1 [R33, thiophen-2-ylmethyl carbamimidothioate hydrochloride]
[7]
  VPS35 levels: elevation
  amyloid-beta (Aβ) levels and deposition: significant decrease
  astrocytes activation: less
  learning and memory: significant improvement
  synaptic integrity: improved
  tau phosphorylation: reduced
[4]
  retromer levels: increased
  retromer-mediated trafficking of cargos: enhanced
